Where two headings read alike, the source gives them in different places.
Experiments:
STAT6 = target: T1, STAT6 (Homo sapiens, UniProt P42226); assay: STAT6 Reporter Luciferase Assay (IL-13 stimulated HaCaT keratinocyte NanoLuc reporter cells); format: cell-based; settings: read-out: Reporter EC50
T1 construct: stably transfected HaCaT keratinocyte cell line, which expresses NanoLuc luciferase reporter gene under the transcriptional control of the STAT6 responsive promoter; endogenous in cells; host or cells: HaCaT keratinocyte reporter cell line (stably transfected with a NanoLuc reporter)
T1 sequence (P42226 1-847): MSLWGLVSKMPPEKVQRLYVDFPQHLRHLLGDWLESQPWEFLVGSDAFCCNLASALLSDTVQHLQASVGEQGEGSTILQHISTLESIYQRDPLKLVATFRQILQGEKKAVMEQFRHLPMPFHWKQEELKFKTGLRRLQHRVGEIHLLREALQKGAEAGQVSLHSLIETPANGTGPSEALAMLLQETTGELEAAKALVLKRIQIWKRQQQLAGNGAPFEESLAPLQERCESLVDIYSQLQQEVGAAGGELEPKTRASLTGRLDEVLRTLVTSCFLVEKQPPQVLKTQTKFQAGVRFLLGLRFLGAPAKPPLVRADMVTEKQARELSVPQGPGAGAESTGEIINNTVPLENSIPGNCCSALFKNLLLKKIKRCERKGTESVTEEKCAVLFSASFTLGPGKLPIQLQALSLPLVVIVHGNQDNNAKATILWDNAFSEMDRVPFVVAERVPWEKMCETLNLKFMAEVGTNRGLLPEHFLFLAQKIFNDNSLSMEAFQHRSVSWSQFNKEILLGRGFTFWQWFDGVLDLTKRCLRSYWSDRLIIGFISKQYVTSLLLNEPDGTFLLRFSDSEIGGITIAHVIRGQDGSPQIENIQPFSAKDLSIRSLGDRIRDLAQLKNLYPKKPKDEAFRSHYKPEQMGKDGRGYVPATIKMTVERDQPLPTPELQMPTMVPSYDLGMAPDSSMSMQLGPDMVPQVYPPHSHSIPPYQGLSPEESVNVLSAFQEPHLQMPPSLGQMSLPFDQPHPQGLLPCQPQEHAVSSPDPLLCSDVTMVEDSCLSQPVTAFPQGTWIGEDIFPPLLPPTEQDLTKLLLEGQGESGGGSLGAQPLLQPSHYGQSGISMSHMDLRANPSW
Outline: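 Compounds were tested as 11-point, 4-fold series in duplicate, applied for 2 h at 37 °C in low-serum (2% FBS) DMEM. The cells were a stable HaCaT line with NanoLuc under a STAT6-responsive IL-13Ra2 promoter. After 4 h with 0.12 nM IL-13, Nano-Glo luminescence was measured.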

[1] = system: CCL17 secretion in peripheral human whole blood; assay: Human Whole Blood (HWB) CCL17 TR-FRET Assay (IL-13 stimulated CCL17 secretion); format: cell-based
Outline: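 Compounds are titrated (11 points, 3-fold, duplicate) into fresh heparinized human whole blood and held 2 h at 37 °C before IL-13 challenge (10 ng/mL final). After 48 h at 37 °C, serum CCL17 is measured by TR-FRET sandwich assay and IC50 values are calculated.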

[2] = IL-13 stimulated HaCaT STAT6 NanoLuc reporter cells
[3] = Homo sapiens, 48 h, human whole blood, IL-13 stimulated
[4] = STAT6 NanoLuc luciferase reporter, IL-13 stimulated HaCaT keratinocyte cells
[5] = Homo sapiens, 48 h, inhibition of CCL17 secretion in human whole blood, 10 ng/mL IL13, 48 hours
[6] = human whole blood, IL-13 stimulated, 48 hours
[7] = Homo sapiens, 48 h, human whole blood, 10 ng/mL IL13, 48 hours

| Structure (SMILES) | EC50 (STAT6; [2]) [nM] | IC50 [1, 3] [nM] | EC50 (STAT6; [4]) [nM] | also measured |
| --- | --- | --- | --- | --- |
| CC(C)n1nc(C(=O)NCc2ccc(NC(=O)N3CC[C@@H](C#N)C3)cc2)c2c1CCN(c1ccc(C(=O)N(C)C)cn1)C2 [Example 183, (R)-N-(4-(3-cyanopyrrolidine-1-carboxamido)benzyl)-5-(5-(dimethylcarbamoyl)pyridin-2-yl)-1-isopropyl-4,5,6,7-tetrahydro-1H-pyrazolo[4,3-c]pyridine-3-carboxamide] | 16 | 67 |  |  |
| CCn1nc(C(=O)NCc2ccc(NC(=O)N(C)C)cc2)c2c1CCN(c1ccc(C(=O)N(C)C)cn1)C2 [Example 3, 5-(5-(Dimethylcarbamoyl)pyridin-2-yl)-N-(4-(3,3-dimethylureido)benzyl)-1-ethyl-4,5,6,7-tetrahydro-1H-pyrazolo[4,3-c]pyridine-3-carboxamide] |  |  | 10 | IC50 [1, 5]: 104 nM |
| CNC(=O)c1ccc(CNC(=O)c2nn(C)c3c2CN(c2ccc(C(=O)N(C)C)cc2)CC3)cc1 [Example 4, 5-(4-(Dimethylcarbamoyl)phenyl)-1-methyl-N-(4-(methylcarbamoyl)benzyl)-4,5,6,7-tetrahydro-1H-pyrazolo[4,3-c]pyridine-3-carboxamide] |  |  | 178 | IC50 [1, 5]: 1110 nM |
| CC(C1CC1)n1nc(C(=O)NCc2ccc(NC(=O)N(C)C)cc2)c2c1CCN(c1ccc(C(=O)N(C)C)cn1)C2 (racemic) [Example 62, rac-(R)-1-(1-cyclopropylethyl)-5-(5-(dimethylcarbamoyl)pyridin-2-yl)-N-(4-(3,3-dimethylureido)benzyl)-4,5,6,7-tetrahydro-1H-pyrazolo[4,3-c]pyridine-3-carboxamide] |  |  | 9 | IC50 [1, 5]: 66 nM |
| CO[C@@H]1CCN(C(=O)Nc2ccc(CNC(=O)c3nn(C(C)C)c4c3CN(c3ccc(C(=O)N(C)C)cn3)CC4)cc2)C1 [Example 179, (R)-5-(5-(dimethylcarbamoyl)pyridin-2-yl)-1-isopropyl-N-(4-(3-methoxypyrrolidine-1-carboxamido)benzyl)-4,5,6,7-tetrahydro-1H-pyrazolo[4,3-c]pyridine-3-carboxamide] |  |  | 7 | IC50 [1, 5]: 64 nM |
| C[C@H]1CN(c2ccc(C(=O)N(C)C)cn2)Cc2c(C(=O)NCc3ccc(NC(=O)N(C)C)cc3)nn(C3(C)CC3)c21 (single isomer, unassigned) [Example 285] | 1 | 7 |  |  |
| CC(C)n1nc(C(=O)NCc2ccc(NC(=O)N(C)C)cc2)c2c1C(C(F)(F)F)CN(c1ncc(C(=O)N(C)C)cn1)C2 (racemic) [Example 459, rac-(R)-5-(5-(dimethylcarbamoyl)pyrimidin-2-yl)-N-(4-(3,3-dimethylureido)benzyl)-1-isopropyl-7-(trifluoromethyl)-4,5,6,7-tetrahydro-1H-pyrazolo[4,3-c]pyridine-3-carboxamide] | 0.3 | 2 |  |  |
| CC(C)n1nc(C(=O)NCc2ccc(NC(=O)N(C)C)cc2)c2c1CCN(c1ccc(-c3nccn3C)cn1)C2 [Example 45, N-(4-(3,3-Dimethylureido)benzyl)-1-isopropyl-5-(5-(1-methyl-1H-imidazol-2-yl)pyridin-2-yl)-4,5,6,7-tetrahydro-1H-pyrazolo[4,3-c]pyridine-3-carboxamide] |  |  | 4 | IC50 [1, 5]: 50 nM |
| CCc1nc(C(=O)NCc2ccc(NC(=O)N(C)C)cc2)c2n1C(C)CN(c1ccc(C(=O)N(C)C)cc1)C2 (single isomer, unassigned) [Example 428, rel-(R or S)-7-(4-(dimethylcarbamoyl)phenyl)-N-(4-(3,3-dimethylureido)benzyl)-3-ethyl-5-methyl-5,6,7,8-tetrahydroimidazo[1,5-a]pyrazine-1-carboxamide] | 17 |  |  | IC50 [1, 6]: 140 nM |
| CC1CN(c2ncc(C(=O)N(C)C)cn2)Cc2c(C(=O)NCc3ccc(NC(=O)N(C)C)cc3)nn(C(C)C)c21 (racemic) [Example 532, rac-(R)-5-(5-(dimethylcarbamoyl)pyrimidin-2-yl)-N-(4-(3,3-dimethylureido)benzyl)-1-isopropyl-7-methyl-4,5,6,7-tetrahydro-1H-pyrazolo[4,3-c]pyridine-3-carboxamide] | 1 |  |  | IC50 [1, 7]: 4 nM |
| CN(C)C(=O)Nc1ccc(CNC(=O)c2nn(C3CCCC3)c3c2CN(c2ccc(C(=O)N(C)C)cn2)CC3)cc1 [Example 264, 1-cyclopentyl-5-(5-(dimethylcarbamoyl)pyridin-2-yl)-N-(4-(3,3-dimethylureido)benzyl)-4,5,6,7-tetrahydro-1H-pyrazolo[4,3-c]pyridine-3-carboxamide] | 7 | 131 |  |  |
| CC(C)n1nc(C(=O)NCc2ccc(NC(=O)N3CCC4(CCNCC4)CC3)cc2)c2c1[C@@H](C)CN(c1ccc(C(=O)N(C)C)cc1)C2 [Example 625, (S)-N-(4-((5-(4-(dimethylcarbamoyl)phenyl)-1-isopropyl-7-methyl-4,5,6,7-tetrahydro-1H-pyrazolo[4,3-c]pyridine-3-carboxamido)methyl)phenyl)-3,9-diazaspiro[5.5]undecane-3-carboxamide] | 10 |  |  | IC50 [1, 7]: 24 nM |
| CC(C)n1nc(C(=O)NCc2ccc(NC(=O)N(C)C)cc2)c2c1C(C(F)(F)F)CN(c1ccc(C(=O)N(C)C)cn1)C2 (racemic) [Example 546, rac-(R)-5-(5-(Dimethylcarbamoyl)pyridin-2-yl)-N-(4-(3,3-dimethylureido)benzyl)-1-isopropyl-7-(trifluoromethyl)-4,5,6,7-tetrahydro-1H-pyrazolo[4,3-c]pyridine-3-carboxamide] | 0.3 |  |  | IC50 [1, 7]: 5 nM |
| CC(C)n1nc(C(=O)NCc2ccc(NC(=O)N3CCCC3)cc2)c2c1CCN(c1ccc(C(=O)N(C)C)cn1)C2 [Example 136, 5-(5-(Dimethylcarbamoyl)pyridin-2-yl)-1-isopropyl-N-(4-(pyrrolidine-1-carboxamido)benzyl)-4,5,6,7-tetrahydro-1H-pyrazolo[4,3-c]pyridine-3-carboxamide] |  |  | 12 | IC50 ([1]; inhibition of CCL17 secretion in human whole blood, 10 ng/mL IL13, 48 hours): 196 nM |
| CC(C)n1nc(C(=O)NCc2ccc(NC(=O)N3CCNCC3)c(F)c2)c2c1[C@@H](C)CN(c1ccc(C(=O)N(C)C)cc1)C2 [Example 566, (S)-5-(4-(dimethylcarbamoyl)phenyl)-N-(3-fluoro-4-(piperazine-1-carboxamido)benzyl)-1-isopropyl-7-methyl-4,5,6,7-tetrahydro-1H-pyrazolo[4,3-c]pyridine-3-carboxamide] | 2 |  |  | IC50 [1, 7]: 15 nM |
| CC(C)n1nc(C(=O)NCc2ccc(NC(=O)N(C)C)cc2)c2c1CCN(c1ccc(C(=O)N3CCc4c(ncn4C4CC4)C3)cn1)C2 [Example 420, 5-(5-(1-cyclopropyl-4,5,6,7-tetrahydro-1H-imidazo[4,5-c]pyridine-5-carbonyl)pyridin-2-yl)-N-(4-(3,3-dimethylureido)benzyl)-1-isopropyl-4,5,6,7-tetrahydro-1H-pyrazolo[4,3-c]pyridine-3-carboxamide] | 17 | 125 |  |  |
| CC1CN(c2ccc(-c3nccn3C)cn2)Cc2c(C(=O)NCc3ccc(NC(=O)N(C)C)cc3)nn(C)c21 (single isomer, unassigned) [Example 203, rel-(R or S)-N-(4-(3,3-dimethylureido)benzyl)-1,7-dimethyl-5-(5-(1-methyl-1H-imidazol-2-yl)pyridin-2-yl)-4,5,6,7-tetrahydro-1H-pyrazolo[4,3-c]pyridine-3-carboxamide] | 1 |  |  | IC50 [1, 6]: 16 nM |
| CN(C)C(=O)Nc1ccc(CN2CCCn3nc4c(c3C2=O)CN(c2ccc(C(=O)N(C)C)cn2)CC4)cc1 [Example 252, 6-(10-(4-(3,3-Dimethylureido)benzyl)-11-oxo-1,3,4,7,8,9,10,11-octahydro-2H-pyrido[4′,3′:3,4]pyrazolo[1,5-a][1,4]diazepin-2-yl)-N,N-dimethylnicotinamide] | 385 | 1130 |  |  |

Reference: US20250320213A1, “Nitrogen-Containing Heterocyclic Compounds” (Pfizer Inc., priority 2024, published 2025)
